Source: patent US20240189263A1, “DERIVATIZED C60 MOLECULES AND METHODS AND MATERIALS FOR USING DERIVATIZED C60 MOLECULES TO REDUCE RADIATION INJURY” (Mayo Foundation for Medical Education and Research, priority 2021, published 2024)

Assays:
Format in all cases: cell-based
[1] = test system: N2A cells; test: ROS by H2-DCFDA probe after proton irradiation, N2A; details: 50 μM, positive control
Text: (§1) Cell lines were irradiated using pencil beam scanning (PBS) proton beams produced by IBA ProteusOne (Ion Beam Applications, Louvain-la-Neuve, Belgium). Single layer mono-energy 227 MeV pencil beams with uniform spacing of 0.25 cm between each spot were used to create a large field size with uniform dose distribution (±2%) that encompassed all sample wells containing the cells. A fixed source to surface distance (SSD) setup and gantry at 180 degrees was used to delivery 0.5, 1, 2, 4, and 6 Gray (Gy) dose of ionizing radiation to cells. The cells were place at an 8 cm depth, with a linear energy transfer (LET) of approximately 1.7 keV/μm, using solid water slabs as a buildup. […] The monitor units needed to deliver the intended dose were calculated using the measure dose/MU values.
(§2) Post radiation, 2′,7′-dichlorodihydrofluorescein diacetate (H2-DCFDA) probes were used to measure the level of reactive oxygen species (ROS) post-proton radiation (1 Gy, 230 MeV proton beam). […] A fluorescence microplate reader (SpectraMax M5, Molecular Devices Corporation, California, USA) was used to detect the generation of fluorescent DCF molecules with an excitation filter of 485 nm and an emission filter of 525 nm, with a 515 nm cutoff filter. […] Following irradiation, the cells were transported back for plate reading, 30 minutes post radiation.

[2] = test system: HUVEC cells; test: ROS by H2-DCFDA probe after proton irradiation, HUVEC; details: 50 μM, positive control
Text: as §1, §2

[3] = test system: NIH3T3 cells; test: ROS by H2-DCFDA probe after proton irradiation, NIH3T3; details: NIH3T3, 50 μM, positive control
Text: as §1, §2

[4] = test system: HepG2 cells; test: ROS by H2-DCFDA probe after proton irradiation, HepG2; details: control HepG2 cells, 50 μM, positive control
Text: as §1, §2

Measured: ROS (H2-DCFDA fluorescence)

CC(=O)N[C@@H](CS)C(=O)O [NAC, N-acetyl cysteine, reference compound]
decrease in ROS: all assays above
